Experimental data published in patent publication US20040076622A1, “Local production and/or delivery of anti-cancer agents by stromal cell precursors” (Board of Regents, The University of Texas System, priority 2002, published 2004).
Where two headings read alike, the source gives them in different places.

Key:
MFP-regulated promoter = assay: MFP dependent induction of IFN-α from AAV-infected MSC (ELISA); type: cell-based, human; conditions: MSC infected with MFP regulated AAV
Protocol: Regulated expression from a drug inducible AAV vector. An AAV construct was used that expressed IFN-α under the control of a MFP-regulated promoter, to infect normal donor MSC in vitro. Briefly, MSC were infected with 10^3 GE of AAV-IFN-α and 10^3 GE of AAV-gal4prlMFP, and expanded for 10 additional days. These cells were subcultured into 12 well dished were MFP (dissolved in 0.1% ETOH) or solvent carrier was added at the concentrations noted. MSC infected w/ the MFP regulated AAV, express IFN-α only after 18 h exposure to MFP (FIG. 4A). Three drug concentrations were tested, each dose was 10-fold less than the previous one, and with the initial dose of 10^−7 M being 3 logs less than the dose commonly given for chemical abortions in humans. Of note is that a one-time addition of MFP results in a prolonged 8-10 day expression of IFN-α, peaking at 4-5 days after drug addition. […] Ten days after IFN-α level reached background activity we waited 3 additional days and added another dose of 10^-8 M MFP. […]
Exemplary methods for harvesting, culture, and infection of MSC. […] Forty-eight hours later cells are analyzed for βgal expression using X-gal histochemical staining or analysis with FACS utilizing CM-FDG, as in Marini et al. (1999). […] Six to 24 h later, supernatant is collected and analyzed via Quantikine IFN-α ELISA (Biosource International Inc Camarillio Calif.).

[1] = Systemic expression of IFN-α after intramuscular injection of AAV in mice (ELISA); type: in vivo, mouse; conditions: one application of MFP given IP, mice injected with inducible AAVs
Protocol: In vivo testing. To initiate a in vivo culture model of CML, two BCR-ABL+ cell lines, the K562 (which grow extramedullary in nu/nu mice) or BV173 (which grows intra bone marrow in BalbC/nu mice) were injected into respective mice. […] Utilizing the BV173 cell line we tested three cell doses and found one million BV173 cells were sufficient to kill the mice within 45 days, whereas 5×10^5 BV173 cells allowed the mice to survive for 60+ days with one mice still surviving. […] As an alternative to using MSCs as a cell based therapy, the AAV vectors may be directly inject into the muscle, thereby allowing secretion of IFN-α systemically. Evaluation of this route of delivery was performed by an intramuscular injection of […] AAV-CMV-IFN-α or 5×10^10 GE of AAV-Gal4hPRL-65AD and 5×10^10 GE of AAV-G5E-IFN-α into the quadriceps of mice. Mice were bled weekly and the serum was analyzed for IFN-α expression using the Biosource ELISA kit. As shown in FIG. 9 circulating levels of hIFN-α was detected in the peripheral blood, and more importantly, it was identified over the high background level seen in these nu/nu animals. […] Using this mouse model circulating levels of human IFN-α were detected. Human MSC may also be detected using molecular, fluorescent, and immunohistochemical approaches.

CML = conditions: cited from earlier work
KBM5-STI cells = assay: Growth inhibition of STI-resistant KBM5 cells by STI and IFN-α; type: cell-based; conditions: for Growth inhibition of KBM5-STI cells: ST1571 0.5, 1.0, 2.0 tmol, IFNα 2,000, 5,000, 10,000 U
Description: (§1) The effects of IFNA and ST1571 on STI-resistant KBM5 cells were studied.

KBM5 cells = assay: Growth inhibition of KBM5 cells by STI and IFN-α; type: cell-based; conditions: ST1571 0.5, 1.0, 2.0 tmol; IFNα 2,000, 5,000, 10,000 U
Description: as §1

melanoma = conditions: cited from earlier work
MSC = assay: Effect of MDA7 on growth of the MSC; type: cell-based; conditions: MSC growth not affected
Protocol: MSC were infected with a β-gal MDA7 adenovirus provided by Dr. Sunil Chada (Introgen, Houston, Tex.) at 50, 500, 5,000, and 25,000 MOI. All experiments were performed in duplicate supernatant from control and MDA7-MSC was obtained and added to KBM5 and KBM5-STI cells and assayed at 24 and 72 hours. Co-cultures of β-gal MDA7-MSC and control MSC with KBM5 (STI-sensitive) and KBM5-STI (STI-resistant) cells were also performed, with the MSC growing to near-confluency and 0.125×10^6 cells/mL plated on the MSC in 12 well plates. All wells were assayed at 24 and 72 hours.

[2] = patients with chronic phase CML

CC#C[C@]1(O)CC[C@H]2[C@@H]3CCC4=CC(=O)CCC4=C3[C@@H](c3ccc(N(C)C)cc3)C[C@@]21C [MFP, mifpristone]
Time of peak IFN-α expression after drug addition (MFP-regulated promoter): 4 to 5 days | Duration of IFN-α expression after a one-time addition of MFP (MFP-regulated promoter; 18 h exposure): 8 to 10 days | Period over which the single peak of IFN-α activity decays [1]: 7 days

Cc1ccc(NC(=O)c2ccc(CN3CCN(C)CC3)cc2)cc1Nc1nccc(-c2cccnc2)n1 [ST1571]
Complete cytogenetic remissions (CML; [2]): 95% | Hematological remission (CML; [2]): > 90% | RT-PCR negativity (CML; [2]): 8% | Growth inhibition of KBM5-STI cells (KBM5-STI cells): resistant | Growth inhibition of KBM5 cells (KBM5 cells): highly sensitive

IFNα
CCR's lost (CML; CML patients at 5 years): 42% | CCR's lost (CML; CML patients at 8 years): 50% | Patients able to maintain high concentrations (CML; patients who received INFα for CML): less than 30% | Growth inhibition of KBM5-STI cells (KBM5-STI cells): but not on KBM5-STI cells | Enhancement of the STI effect by IFNα (KBM5-STI cells; in vitro, KBM5 and KBM5-STI cells): did not enhance the STI effect | Overall response rate (melanoma; advanced melanoma): 20% | Improvement in the fraction of patients who are disease-free (melanoma; high risk melanoma): 42% | Growth inhibition of KBM5 cells (KBM5 cells): pronounced growth inhibitory effects

B1: MDA7: melanoma differentiation associated protein 7, classified as interleukin-24 (protein, UniProt Q13007 52-206, looked up)
Interleukin-24: QEFHFGPCQVKGVVPQKLWEAFWAVKDTMQAQDNITSARLLQQEVLQNVSDAESCYLVHTLLEFYLKTVFKNYHNRTVEVRTLKSFSTLANNFVLIVSQLQPSQENEMFSIRDSAHRRFLLFRRAFKQLDVEAALTKALGEVDILLTWMQKFYKL
Toxic effects on MSC (MSC): no toxic effects
